Results taken from PubChem BioAssay AID2060600 (Molecular Pharmacology Branch, DTP, NCI, 2025).
Values joined by “and” are separate entries in the source; they are usually repeats but may differ in a detail not shown here. Equal entries are not always repeated.

Tested on: 996289-038-R-J1-PDC complex spheroid viability
Experiment: Anticancer human tumor 996289-038-R-J1-PDC patient-derived colon adenocarcinoma cell line growth inhibition [CLK]
Settings: for viability, T/C: stronger effect = lower value; for IC50: curve of compound
Text: A high-throughput screen of multi-cell type tumor spheroids was designed to identify active combinations of […] and targeted small molecules. Complex spheroids include a stromal component modeled by human endothelial cells (HUVEC) and fibroblasts modeled by human mesenchymal stem cells (MSCs). The concentration ranges selected for each drug and investigational agent were based upon clinically achievable concentrations if the clinical Cmax of the agent was known.
Compounds. The drugs and investigational agents: cirtuvivint (SM08502; NSC835563), CC-671 (NSC850746), vemurafenib (NSC761431), tapotoclax (NSC804041), sotorasib (NSC818433), adagrasib (NSC831453), MRTX-1133 (NSC836407), BAY2416964 (NSC825713), copanlisib (NSC816437), inavolisib (NSC800729), abemaciclib (NSC768073), osimertinib (NSC779217), entinostat (NSC756642), eltanexor (KPT-8602, NSC794443), venetoclax (NSC766270), ceralasertib (NSC777638), bortezomib (NSC756655), olaparib (NSC753686), talazoparib (NSC767125), alisertib (NSC759677), peposertib (NSC802822), gemcitabine (NSC613327), 5-fluorouracil (NSC19893), SN-38 (NSC673596), oxaliplatin (NSC266046), paclitaxel (NSC125973), and doxorubicin (NSC123127), were obtained from the National Cancer Institute (NCI) Developmental Therapeutics Program Chemical Repository. The FDA-approved anticancer drug set is available from the Developmental Therapeutics Program at https://dtp.cancer.gov/organization/dscb/obtaining/available plates.htm. […] The stock solutions were prepared in dimethyl sulfoxide (DMSO, Sigma-Aldrich, St. Louis, MO, cat. D2650), except for the platinum complexes which were prepared in saline (Quality Biological, Gaithersburg, MD, cat. 114-055-101), at 800-fold the tested concentration and stored at -70 degrees C prior to their use. All drugs and investigational agents were tested over a range starting from a high concentration at or near the clinical Cmax and decreasing in half-log increments. If the clinical Cmax for an agent had not been determined, the highest concentration tested was 10 microM.
Cell Culture. All cells were maintained in an incubator at 37 degrees C and 5% CO2 with 95% humidity. The PDC lines were cultured according to standard operating procedures established by the NCI PDMR. Briefly, all PDCs were thawed and cultured in Matrigel-coated flasks prepared with a working solution of 1X Ham's F-12 nutrient mix, without supplementation (Invitrogen, Waltham, MA, cat. 11765054), 100 U/mL penicillin-streptomycin (Invitrogen, cat. 15140122), and 2.5% Matrigel (Corning Inc., Corning, NY, cat. 354248) for the first three passages. The 947758-054-R-J2-PDC line was cultured in 6B/Colon 1A media, which includes advanced DMEM/F-12 (Thermo Fisher Scientific, cat. 12634028), 10 mM HEPES (Thermo Fisher Scientific, cat. 15630080), 1X GlutaMAX supplement (Thermo Fisher Scientific, cat. 35050061), 0.1 mg/mL primocin (InvivoGen, cat. ant-pm-2), 10% defined fetal bovine serum, heat inactivated (HyClone Laboratories Inc., cat. SH30070.03HI), 1.25 mM N-Acetyl-L-cysteine (Sigma-Aldrich, cat. A9165), 10 mM nicotinamide (Sigma-Aldrich, cat. N0636), 1X B-27 supplement (Thermo Fisher Scientific, cat. 17504044), 1X N-2 supplement (Thermo Fisher Scientific, cat. 17502048), and 10 microM Y-27632 dihydrochloride (Tocris Bioscience, cat. 1254). The 876862-298-R-J1-PDC was cultured in 6E media, which includes all 6B/Colon 1A media components plus 50% L-WRN conditioned media (ATCC, cat. CRL-3276), 50 ng/mL recombinant human EGF recombinant protein (hEGF; Thermo Fisher Scientific, cat. PHG0311), 10 ng/mL recombinant human fibroblast growth factor 10 (hGFG-10; PeproTech, cat. 100-26), 1 ng/mL recombinant human fibroblast growth factor 2 (hFGF-2; PeproTech, cat. 100-18B), and 1 µM prostaglandin E2 (PGE2; Tocris, cat. 2296). The 227483-062-R1-J1-PDC line was cultured in Panc media, containing all 6E components except hFGF-2, with the addition of 500 nM SB-431542 (Selleckchem, cat. S1067) and 10 nM gastrin (Tocris, cat. 3006). […]
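Note: spheroids exposed to the agents for 7 days before readout.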

SMILES | viability, T/C (compound 0.000316 µM) | viability, T/C (compound 0.001 µM) | viability, T/C (compound 0.00316 µM) | viability, T/C (compound 0.01 µM) | viability, T/C (compound 0.0316 µM) | viability, T/C (compound 0.1 µM) | IC50 | viability, T/C (compound 0.00949 µM) | viability, T/C (compound 0.03 µM) | viability, T/C (compound 0.0949 µM) | viability, T/C (compound 0.3 µM) | viability, T/C (compound 0.949 µM) | viability, T/C (compound 3 µM) | viability, T/C (compound 0.316 µM) | viability, T/C (compound 1 µM) | viability, T/C (compound 3.16 µM) | viability, T/C (compound 10 µM)
Cn1ncnc1[C@H]1c2n[nH]c(=O)c3cc(F)cc(c23)N[C@@H]1c1ccc(F)cc1 | 98% and 109% | 90.6% and 97.8% | 107% and 108% | 103% and 105% | 99% and 117% | 85.3% and 95.5% | > 0.1 µM |  |  |  |  |  |  |  |  |  | 
NC(=O)C(=Cn1cnc(-c2cc(C(F)(F)F)cc(C(F)(F)F)c2)n1)c1cncnc1 |  |  |  |  |  |  | 0.0744 µM and 0.0789 µM | 83% and 87.8% | 63% and 63.2% | 49.2% and 52.4% | 28.8% and 28.9% | 19.9% and 22.7% | 18.5% and 21.2% |  |  |  | 
Nc1ccccc1NC(=O)c1ccc(CNC(=O)OCc2cccnc2)cc1 |  |  |  |  | 88.5% and 105% | 89.2% and 81.2% | 6.4 µM and 7.34 µM |  |  |  |  |  |  | 91.8% and 98.1% | 87.1% and 85% | 61.8% and 65.7% | 42.5% and 44.2%
Nc1ccn(C2OC(CO)C(O)C2(F)F)c(=O)n1 (configuration not stated) |  |  |  |  | 82% and 89.3% | 62.9% and 70.5% | > 10 µM |  |  |  |  |  |  | 62.4% and 68.2% | 55.8% and 65.7% | 54.8% and 69.3% | 47% and 59%
O=C(c1cc(Cc2n[nH]c(=O)c3ccccc23)ccc1F)N1CCN(C(=O)C2CC2)CC1 |  |  |  |  | 99.9% and 109% | 98.6% and 86.6% | > 10 µM |  |  |  |  |  |  | 103% and 108% | 99.1% and 105% | 105% and 113% | 93.9% and 104%
O=c1[nH]cc(F)c(=O)[nH]1 |  |  |  |  | 99.2% and 101% | 83.9% and 82.2% | > 10 µM |  |  |  |  |  |  | 83.3% and 88.9% | 79.7% and 78.6% | 77.9% and 85.8% | 73.3% and 74.8%
